Assays:
[1] = system: Hepatotoxicity;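 for HepSE cholecystitis: Cholecystitis-related hepatic side effect score drawn from the DILIps (drug-induced liver injury prediction) training data set; call rule not given here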; for HepSE hepatic failure: call rule not given here;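 for HepSE hepatic necrosis: score of hepatic side effects for hepatic necrosis, drawn from the training data of DILIps, a prediction system for drug-induced liver injury; call rule not given here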;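 for HepSE hepatomegaly: hepatic side effect score for hepatomegaly, taken from the training set of the DILIps drug-induced liver injury prediction system; call rule not given here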;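 for HepSE liver fatty: hepatic side effect score for fatty liver, taken from the DILIps training set for predicting drug-induced liver injury; call rule not given here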;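 for HepSE liver function tests abnormal: hepatic side effect score taken from the DILIps (drug-induced liver injury prediction system) training data, here covering abnormal liver function test findings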
[2] = system: Hepatotoxicity; remark: listed apart in the source;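 for HepSE cholecystitis: Cholecystitis-related hepatic side effect score drawn from the DILIps (drug-induced liver injury prediction) training data set; call rule not given here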; for HepSE hepatic failure: call rule not given here;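 for HepSE hepatic necrosis: score of hepatic side effects for hepatic necrosis, drawn from the training data of DILIps, a prediction system for drug-induced liver injury; call rule not given here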;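 for HepSE hepatomegaly: hepatic side effect score for hepatomegaly, taken from the training set of the DILIps drug-induced liver injury prediction system; call rule not given here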;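 for HepSE liver fatty: hepatic side effect score for fatty liver, taken from the DILIps training set for predicting drug-induced liver injury; call rule not given here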;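 for HepSE liver function tests abnormal: hepatic side effect score taken from the DILIps (drug-induced liver injury prediction system) training data, here covering abnormal liver function test findings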
[3] = system: Hepatotoxicity; remark: listed apart in the source;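 for HepSE cholecystitis: Cholecystitis-related hepatic side effect score drawn from the DILIps (drug-induced liver injury prediction) training data set; call rule not given here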; for HepSE hepatic failure: call rule not given here;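 for HepSE hepatic necrosis: score of hepatic side effects for hepatic necrosis, drawn from the training data of DILIps, a prediction system for drug-induced liver injury; call rule not given here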;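 for HepSE hepatomegaly: hepatic side effect score for hepatomegaly, taken from the training set of the DILIps drug-induced liver injury prediction system; call rule not given here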;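 for HepSE liver fatty: hepatic side effect score for fatty liver, taken from the DILIps training set for predicting drug-induced liver injury; call rule not given here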;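 for HepSE liver function tests abnormal: hepatic side effect score taken from the DILIps (drug-induced liver injury prediction system) training data, here covering abnormal liver function test findings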
[4] = system: Hepatotoxicity; remark: listed apart in the source;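 for HepSE cholecystitis: Cholecystitis-related hepatic side effect score drawn from the DILIps (drug-induced liver injury prediction) training data set; call rule not given here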; for HepSE hepatic failure: call rule not given here;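 for HepSE hepatic necrosis: score of hepatic side effects for hepatic necrosis, drawn from the training data of DILIps, a prediction system for drug-induced liver injury; call rule not given here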;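 for HepSE hepatomegaly: hepatic side effect score for hepatomegaly, taken from the training set of the DILIps drug-induced liver injury prediction system; call rule not given here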;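 for HepSE liver fatty: hepatic side effect score for fatty liver, taken from the DILIps training set for predicting drug-induced liver injury; call rule not given here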;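 for HepSE liver function tests abnormal: hepatic side effect score taken from the DILIps (drug-induced liver injury prediction system) training data, here covering abnormal liver function test findings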
[5] = system: Hepatotoxicity; remark: listed apart in the source; for HepSE hepatic failure: call rule not given here
[6] = system: Hepatotoxicity; remark: listed apart in the source; for HepSE hepatic failure: call rule not given here
[7] = system: Hepatotoxicity; remark: listed apart in the source
[8] = system: Hepatotoxicity; remark: listed apart in the source
[9] = system: Hepatotoxicity; remark: listed apart in the source
[10] = system: Hepatotoxicity; remark: listed apart in the source
[11] = system: Hepatotoxicity; remark: listed apart in the source
[12] = system: Hepatotoxicity; remark: listed apart in the source
[13] = system: Hepatotoxicity; remark: listed apart in the source
[14] = system: Hepatotoxicity; remark: listed apart in the source

Compound | HepSE_hepatomegaly [1] | HepSE_liver fatty [2] | HepSE_liver function tests abnormal [3] | HepSE_hepatic necrosis [4] | HepSE_cholecystitis [5] | HepSE_cholelithiasis [6] | HepSE_hepatitis [7] | HepSE_hepatic failure [8] | HepSE_elevated liver function tests [9] | HepSE_liver disease [10] | HepSE_bilirubinemia [11] | HepSE_Combined Scores [12] | HepSE_jaundice [13] | HepSE_cirrhosis [14] | also measured
CN(C)[C@@H]1C(O)=C(C(N)=O)C(=O)[C@@]2(O)C(O)=C3C(=O)c4c(O)cccc4[C@@](C)(O)[C@H]3C[C@@H]12 [TETRACYCLINE] | 0 | 0 | 0 | 0 | 0 | 0 | 0 | 1 | 0 | 0 | 0 | 1 | 0 | 0 | 
O=C(O)CCNC(=O)c1ccc(/N=N/c2ccc(O)c(C(=O)O)c2)cc1 [BALSALAZIDE] | 0 | 0 | 0 | 1 | 0 | 0 | 0 | 1 | 1 | 0 | 0 | 5 | 1 | 1 | 
COC(=O)[C@@H]1CC2=CC(=O)CC[C@]2(C)[C@@]23O[C@@H]2C[C@@]2(C)[C@@H](CC[C@@]24CCC(=O)O4)[C@H]13 [EPLERENONE] | 0 | 0 | 0 | 0 | 0 | 0 | 0 | 1 | 0 | 0 | 0 | 1 | 0 | 0 | 
FC(F)OC(Cl)C(F)(F)F (configuration not stated) [ISOFLURANE] | 0 | 0 | 0 | 1 | 0 | 0 | 1 | 1 | 0 | 0 | 0 | 4 | 1 | 0 | 
O=C(c1ccc(OCCN2CCCCC2)cc1)c1c(-c2ccc(O)cc2)sc2cc(O)ccc12 [RALOXIFENE] | 0 | 0 | 0 | 0 | 0 | 1 | 0 | 0 | 0 | 0 | 0 | 1 | 0 | 0 | 
CN(C)C(=O)Oc1ccc[n+](C)c1 [PYRIDOSTIGMINE] | 0 | 0 | 0 | 0 | 0 | 0 | 0 | 0 | 0 | 0 | 0 | 0 | 0 | 0 | 
CC(C)[N+](C)(CCOC(=O)C1c2ccccc2Oc2ccccc21)C(C)C [PROPANTHELINE] | 0 | 0 | 0 | 0 | 0 | 0 | 0 | 0 | 0 | 0 | 0 | 0 | 0 | 0 | 
CC[C@@]1(O)C(=O)OCc2c1cc1n(c2=O)Cc2cc3c(CN(C)C)c(O)ccc3nc2-1 [TOPOTECAN] | 0 | 0 | 0 | 0 | 0 | 0 | 0 | 0 | 0 | 0 | 1 | 1 | 0 | 0 | 
CCc1ccc(CCOc2ccc(CC3SC(=O)NC3=O)cc2)nc1 (configuration not stated) [PIOGLITAZONE] | 0 | 0 | 1 | 0 | 0 | 0 | 1 | 1 | 0 | 0 | 0 | 3 | 0 | 0 | 
Nc1nc(=O)n([C@@H]2CS[C@H](CO)O2)cc1F [EMTRICITABINE] |  |  |  |  |  |  |  |  |  |  |  |  |  |  | HepSE_hepatomegaly ([1]; Liver): 0; HepSE_liver fatty ([2]; Liver): 0; HepSE_liver function tests abnormal ([3]; Liver): 0; HepSE_hepatic necrosis ([4]; Liver): 0; HepSE_cholecystitis ([5]; Liver): 0; HepSE_cholelithiasis ([6]; Liver): 0; HepSE_hepatitis ([7]; Liver): 0; HepSE_hepatic failure ([8]; Liver): 0; HepSE_elevated liver function tests ([9]; Liver): 0; HepSE_liver disease ([10]; Liver): 0; HepSE_bilirubinemia ([11]; Liver): 0; HepSE_Combined Scores ([12]; Liver): 0; HepSE_jaundice ([13]; Liver): 0; HepSE_cirrhosis ([14]; Liver): 0
N[C@@H]1[C@H]2CN(c3nc4c(cc3F)c(=O)c(C(=O)O)cn4-c3ccc(F)cc3F)C[C@@H]12 [TROVAFLOXACIN] | 0 | 0 | 0 | 1 | 0 | 0 | 1 | 1 | 0 | 0 | 1 | 5 | 1 | 0 | 
CN1C(=O)CC(C)(c2ccccc2)C1=O (configuration not stated) [METHSUXIMIDE] | 0 | 0 | 0 | 0 | 0 | 0 | 0 | 0 | 0 | 0 | 0 | 0 | 0 | 0 | 
CCN(Cc1ccncc1)C(=O)C(CO)c1ccccc1 (configuration not stated) [TROPICAMIDE] | 0 | 0 |  | 0 | 0 | 0 | 0 | 0 |  | 0 | 0 | 0 | 0 | 0 | HepSE_liver function tests abnormal ([3]; Liver): 0; HepSE_elevated liver function tests ([9]; Liver): 0
